The subject of data set [1] is HIV-1 (LAI isolate). Nature of the data set: Anti-HIV-1 activity (RTase in culture supernatant) in CEM-TK− cells. It is filed as cell-based. Particulars: for EC50: CEM-TK− cells, lowest concentration reducing RTase production by at least 50%, 5 days, read-out: ED50 (the source's name). The procedure:
(§1) HIV-1 replication (LAI isolate) in CEM cells is measured by assaying the reverse transcriptase (RTase) in the culture supernatant after infection for 5 days. This activity reflects the presence of the virus released by the cells. After adsorption of the virus, the test compounds are added, at various concentrations, to the culture medium.
(§2) Antiviral activity is expressed as the lowest concentration of compound which reduces the production of RTase by at least 50% (ED50)
(§3) The compounds were tested as described in Example 5 above.
(§4) The iso-SATE pronucleotides of Examples 16A and 16B were evaluated for their inhibitory effects on the replication of HIV-1 in CEM-SS and in thymidine-kinase deficient cell lines (CEM/TD). For comparison, the parent nucleosides ddA and d4T, and the corresponding bis(SATE) phosphotriesters bis(tBuSATE)ddAMP (the compound of Example 9) and bis(tBuSATE)d4TMP, were evaluated in the same experiments.

In data set [2] the test system is HIV-1 (LAI isolate). Nature of the data set: Anti-HIV-1 activity (RTase in culture supernatant) in CEM-SS cells. It is filed as cell-based. Particulars: lowest concentration reducing RTase production by at least 50%, 5 days, read-out: ED50 (the source's name). The procedure:
as §1, §2, §3, §4

Data set [3] has as its system HIV-1. Nature of the data set: Anti-HIV-1 activity in MT-4 cells. Particulars: for EC50: read-out: ED50 (the source's name). It is filed as cell-based, Human immunodeficiency virus. The procedure:
as §1, §2, §3

Data set [4] deals with non-infected CEM-TK− cells. The data set can be described thus: Toxic effect on non-infected cells (MTT/formazan), CEM-TK−. It is filed as cell-based, Human. To be noted: 50% inhibition of formazan formation, 5 days. The procedure: (§5) The toxic effect on non-infected CEMs is assessed by a calorimetric reaction based on the capacity of living cells to reduce 3-(4,5-dimethylthiazol-2-yl)-2,5-diphenyltetrazolium bromide into formazan after incubation for 5 days in the presence of various concentrations of the compounds.

The test system of data set [5] is non-infected CEM-SS cells. Nature of the data set: Toxic effect on non-infected cells (MTT/formazan), CEM-SS. It is filed as cell-based, Human. To be noted: 50% inhibition of formazan formation, 5 days. The procedure:
as §5

The subject of data set [6] is non-infected MT-4 cells. Nature of the data set: Toxic effect on non-infected cells (MTT/formazan), MT-4. To be noted: 50% inhibition of formazan formation. It is filed as cell-based, Human.
Data set [7] is classed as in vitro ADME. The procedure: (§6) The “ISRP on line” HPLC technique (“On-line Internal Surface Reversed-Phase Cleaning: The Direct HPLC Analysis of Crude Biological Samples”, A. Pompon, I. Lefebvre and J. L. Imbach, Biochemical Pharmacology, 43,1769-1775 (1992) was used for this study, the compound studied being incubated respectively in culture medium (RPMI/10% inactivated serum) and in a total cell extract (CEM).
(§7) Certain kinetic studies comparing the compound of Example 16A, i.e., S,S′-bis(O-pivaloyl-2-oxyethyl) O-2, 3-dideoxyadenosin-5′-yl phosphorodithiolate, also designated as iso[Bis(SATE)ddA] and its isosteric compound of Example 9, i.e., O-(2′,3′-dideoxyadenosin-5′-yl)-O,O′-bis([…]) phosphate, also designated as [Bis(SATE)ddAMP] were effected. The kinetic were studies were performed in culture medium (RPMI containing […] heat-inactivated fetal calf serum) in order to evaluate the stability of the pronucleotides in the extracellular medium used for antiviral evaluation in cell culture systems, and in total cell extracts that mimic the behavior of the compounds inside cells. The “on-line ISPR cleaning” HPLC method of Lefebvre et al., J. Med. Chem., 38, 3941-3950, 1995, were used for the studies. The products resulting from the decomposition were characterized by co-injection with authentic samples and/or by coupled HPLC/Mass Spectroscopy. The kinetics of transformation of the two isomeric pronucleotides strongly differed according to the medium. In culture medium the first iso-SATE group was cleaved in 38.5 hr whereas the first SATE group was cleaved in 165 hr. The second iso-SATE group was cleaved in 5.8 hr whereas the second SATE group was cleaved in 46 hr. In total cell extracts, the first iso-SATE group was cleaved in 5.3 hr whereas the SATE group was cleaved in 1 hr.

Data set [8] is classed as in vitro ADME, Human. The procedure:
as §6, §7

Data set [9] has as its target reverse transcriptase (Human immunodeficiency virus type 1 group M subtype B, UniProt P04585). Particulars: cited from earlier work.
[10] abbreviates: culture medium (RPMI with heat-inactivated fetal calf serum).

Molecules are shown by their SMILES. Where two headings read alike, the source gives them in different places.

Consider `Nc1ncnc2c1ncn2CCOCP(=O)(OCCSSCCO)OCCSSCCO` [Compound 4], for which the EC50 in [1] was 0.08 µM; in data set [2], 3 µM; in [3], 800 nM. The CD50 entry is given as “(CD50 4 · 10^−5 M)” in data set [4], “(CD50 > 10^−4 M)” in data set [5] and “(CD50 2 · 10^−5 M)” in [6].

Consider `Nc1ncnc2c1ncn2[C@H]1CC[C@@H](CO)O1` [ddA, reference compound], for which, in data set [3], the EC50 came out at 10000 nM. Further, the CD50 entry in data set [4], in data set [5] and in data set [6] was “(CD50 > 10^−4 M)” in each case.

Regarding `CC(=O)SCCOP(=O)(OCCSC(C)=O)OC[C@@H]1CC[C@H](n2cc(C)c(=O)[nH]c2=O)O1` [Bis(SATE)ddTMP, O-(2′,3′-Dideoxythymidin-5′-yl)-O,O′-bis(S-acetyl-2-thioethyl)-phosphate], the CD50 entry in data set [4] is “(CD50 > 10^−4 M)”.

Consider `CC(C)(C)C(=O)OCCSP(=O)(OC[C@@H]1CC[C@H](n2cnc3c(N)ncnc32)O1)SCCOC(=O)C(C)(C)C` [iso[Bis(SATE)ddA], S,S′-bis (Ö-pivaloyl-2-oxyethyl) O2′,3′-dideoxyadenosin-5′-yl phosphorodithiolate], for which, in [7] (setting [10]), the “time in which the first (iso-)SATE group was cleaved” value (“time in which the first” below) was 38.5 h and the “time in which the second (iso-)SATE group was cleaved” value was found to be 5.8 h. For the same molecule, the “time in which the first” value in data set [8] (total cell extracts) came to 5.3 h.

Regarding `O=c1[nH]cnc2c1ncn2[C@H]1CC[C@@H](CO)O1` [ddI, reference compound], the CD50 entry in data set [4], in [5] and in data set [6] was “(CD50 > 10^−4 M)” throughout.

On to `CC(=O)SCCOP(=O)(OCCSC(C)=O)OC[C@@H]1CC[C@H](n2cnc3c(=O)[nH]cnc32)O1` [Bis(SATE)ddIMP, O-(2′,3″ -Dideoxyinosin-5′-yl)-O,O′-bis(S-acetyl-2-thioethyl)-phosphate], for which the CD50 result in [4], in data set [5] and in data set [6] was “(CD50 > 10^−4 M)” in each case.

With `Cc1cn([C@H]2C=C[C@@H](CO)O2)c(=O)[nH]c1=O` [d4T, reference compound], in data set [1] (thymidine-kinase deficient CEM cells), the “anti-HIV-1 activity (in words, FIG. 10)” value is “weakly active”.

Take `CC(=O)SCCOP(=O)(OCCSC(C)=O)OC[C@@H]1CC[C@H](n2ccc(=O)[nH]c2=O)O1` [Compound 1, O-(2′,3′-dideoxyuridin-5′-yl)-O,O′-bis(S-acetyl-2-thioethyl)phosphate]: the EC50 in data set [1] turned out to be 4 µM; in data set [2], 5 µM. The ED50 in data set [3] is reported as 2 · 10^−6 M. Moreover, the values for the CD50 result in [4], in [5] and in data set [6] were “(CD50 7 · 10^−5 M)”, “(CD50 9 · 10^−5 M)” and “(CD50 9 · 10^−5 M)”, respectively.

For the molecule `Cc1cn([C@H]2C[C@H](N=[N+]=[N-])[C@@H](CO)O2)c(=O)[nH]c1=O` [AZT, 3′-azido-2′,3,-dideoxythymidine, reference compound], the EC50 in data set [1] was greater than 100 µM. The CD50 entry in [4], in [5] and in data set [6] was “(CD50 > 10^−4 M)” in each case.

For `O=c1ccn([C@H]2CC[C@@H](COP(=O)(O)OP(=O)(O)OP(=O)(O)O)O2)c(=O)[nH]1` [2′,3′-Dideoxyuridine 5′-triphosphate], in data set [9], the “inhibition of reverse transcriptase (in words)” value is “excellent inhibitor”.

As to `Cc1cn([C@H]2C[C@H](N=[N+]=[N-])[C@@H](COP(=O)(OCCSSCCO)OCCSSCCO)O2)c(=O)[nH]c1=O` [Compound 3, O,O′-Bis(S-(2-hydroxyethylsufidyl)-2-thioethyl)-O-(3′azido-3′-deoxythymidin-5′-yl)phosphate], the EC50 in [1] came out at 7 µM; in data set [2], 0.0007 µM; in data set [3] it was 1 nM. Besides, the CD50 result in [4], in data set [5] and in data set [6] was “(CD50 8 · 10^−5 M)” each time.

As to `CC(=O)SCCOP(=O)(OCCSC(C)=O)OC[C@@H]1CC[C@H](n2cnc3c(N)ncnc32)O1` [Bis(SATE)ddAMP, O-(2′,3′-Dideoxyadenosin-5′-yl)—O,O′-bis(S-acetyl-2-thioethyl)-phosphate], in [4], the CD50 entry is recorded as “(CD50 > 10^−5 M)”. Also, the “time in which the first” value is 165 h in data set [7] and 1 h in data set [8]. In addition, the “time in which the second (iso-)SATE group was cleaved” value in data set [7] stood at 46 h.

With `O=c1ccn([C@H]2CC[C@@H](COP(=O)(OCCSSCCO)OCCSSCCO)O2)c(=O)[nH]1` [Compound 2, O,O′-Bis(S-(2-hydroxyethylsufidyl)-2-thioethyl)-o-(2′,3′-dideoxyuridin-5′-yl)phosphate], the EC50 in data set [1] is 8 µM; in [2], 60 µM. Also, the CD50 entry in data set [4] was “(CD50 8 · 10^−5 M)”; in data set [5], “(CD50 10^−4 M)”. Also, the “half-life in culture medium” value in data set [7] (RPMI/10% inactivated serum) came out at 9 h. Moreover, the “half-life in cell extract” value in data set [8] (total cell extract (CEM)) is on record as “less than 5 minutes”.
